From patent US20240269309A1, “CAMPTOTHECIN ANALOGUES, CONJUGATES AND METHODS OF USE” (priority 2021, published 2024)

Key:
Assay type in all cases: cell-based
Calu-3 (lung cancer) = test: In vitro cytotoxicity of camptothecin analogues (CellTiter-Glo); conditions: Homo sapiens, Calu-3, 96 h; 4 d incubation, growth inhibition by CellTiter-Glo; read-out: pIC50 Calu-3 (converted)
Protocol: Cytotoxicity of the camptothecin analogues was assessed in vitro on the following cancer cell lines: SK-BR-3 (breast cancer), SKOV-3 (ovarian cancer), Calu-3 (lung cancer), ZR-75-1 (breast cancer) and MDA-MB-468 (breast cancer).
Briefly, serial dilutions of camptothecin analogues shown in Table 5.1 were prepared in RPMI 1640+10% FBS, and 20 uL of each dilution was added to 384-well plates. Cells cultured in log-phase growth were detached by brief incubation in 0.05% Trypsin and resuspended in respective culturing media at 20,000 cells/mL (with the exception of ZR-75 cells, which were resuspended at 10,000 cells/mL). 50 uL of cell suspension was then added to the plates containing test articles. Cells were incubated with test articles for 4 d at 37° C. (with the exception of ZR-75 cells, which were incubated for 5 d). Growth inhibition was assessed by CellTiter-Glo® (Promega Corporation, Madison, WI) and luminescence was measured on a Synergy™ H1 plate reader (BioTek Instruments, Winooski, VT). IC50 values were determined by GraphPad Prism (GraphPad Software, San Diego, CA).

[1] = system: EBC-1 (lung carcinoma; FRα-negative) spheroids; test: In vitro cytotoxicity of anti-FRα ADCs, 3D spheroids; conditions: monoculture spheroids, 6-day treatment
Protocol: (§1) The cytotoxicity capabilities of select ADCs from Example 12 were assessed in a panel of FRα-expressing cell line spheroids as described below. Cell lines used were IGROV-1 (ovarian adenocarcinoma), T-47D (breast carcinoma), OVCAR-3 (ovarian adenocarcinoma), HEC-1-A (uterine adenocarcinoma) and EBC-1 (lung carcinoma; FRα-negative).
(§2) Briefly, cells were seeded in Ultra-Low Attachment 384-well plates, centrifuged and incubated under standard culturing conditions to allow for spheroid formation and growth. Monoculture cell line spheroids were then treated with a titration of test article, generated in cell growth medium. Spheroids were incubated for 6 days under standard culturing conditions. After incubation, CellTiter-Glo® 3D reagent (Promega Corporation, Madison, WI) was spiked in all wells. Plates were incubated in the dark at room temperature for 1 hour and luminescence was quantified using a BioTek Cytation 5 Cell Imaging Multi-Mode Reader (Agilent Technologies, Inc., Santa Clara, CA). Based on blank wells (no test article added), percent cytotoxicity values were calculated and plotted against test article concentration using GraphPad Prism 9 software (GraphPad Software, San Diego, CA).

[2] = system: HEC-1-A (uterine adenocarcinoma) spheroids; test: as above; conditions: monoculture spheroids, 6-day treatment
Protocol: as §1, §2

[3] = system: IGROV-1 (ovarian adenocarcinoma) spheroids; test: as above; conditions: monoculture spheroids, 6-day treatment
Protocol: as §1, §2

[4] = system: OVCAR-3 (ovarian adenocarcinoma) spheroids; test: as above; conditions: monoculture spheroids, 6-day treatment
Protocol: as §1, §2

[5] = system: T-47D (breast carcinoma) spheroids; test: as above; conditions: monoculture spheroids, 6-day treatment
Protocol: as §1, §2

CC[C@@]1(O)C(=O)OCc2c1cc1n(c2=O)Cc2c-1nc1cc(F)c(OC)cc1c2CNC(=O)NCc1ccc(N)cc1 [Compound 135, (S)-1-(4-aminobenzyl)-3-((4-ethyl-8-fluoro-4-hydroxy-9-methoxy-3,14-dioxo-3,4,12,14-tetrahydro-1H-pyrano[3′,4′: 6,7]indolizino[1,2-b]quinolin-11-yl)methyl)urea]
IC50 (Calu-3 (lung cancer)): 25.1 nM

v21995-MC-GGFG-DXd: "ADCs comprising the antibody palivizumab (v21995) were used as non-targeted controls"; drug-linker MC-GGFG-DXd
EC50 [1]: 24.4 nM | EC50 [2]: 27.6 nM | EC50 [3]: 16.7 nM | EC50 [4]: 46 nM | EC50 [5]: 17.8 nM
